Assay results from PubChem BioAssay AID351 (ChemBlock, 2006).
Active and inactive are the calls of the source.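 Rule for the calls: active = compounds that disrupt early egg division and make hatched embryos spin fast in place instead of swimming forward; inactive = the rest.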 Square brackets hold non-standard residues; d marks the D form. Peptide text beside a SMILES is read from it. * marks the point of attachment. ξ: configuration not given here. X1 = COC1=CC(=O)N(C(=O)C(O*)C(C)C)C1Cc1ccccc1; ξNMe2Val = CC(C)C(C(=O)*)N(C)C; NMeV = CN[CH](C(=O)O)C(C)C

System: not listed separately
Experiment: sea urchin embryo cleavage alteration, tubulin destabilizer project, whole organism, microscopy (AID 351)
Settings: sea urchin embryo, cleavage alteration, microscopy
In the case of Nc1csnc1-c1nnc(Nc2ccc3c(c2)OCO3)o1, the outcome was “inactive; up to 5 µM”.
In the case of Nc1nonc1-c1nc2ccccc2n1Cc1cccc(F)c1, the outcome was “inactive; up to 1 mM”.
For Cc1ccc(Nc2nc(-c3c(C)nc4ccccn34)cs2)c(C)c1, the outcome was “inactive; up to 5 mM”.
For COc1ccc2[nH]c(C)c(CCNC(=O)c3ccc(OC)c(OC)c3)c2c1, the outcome was “inactive; up to 50 µM”.
In the case of CCOc1ccc(-c2cn[nH]c2N)cc1OCC, the outcome was “inactive; up to 40 mM”.
With CCN(CC)C(=O)C(=O)c1cn(Cc2ccc(F)cc2)c2ccccc12 the outcome was “inactive; up to 50 µM”.
With COc1ccc(C(=O)c2c(N)nc3n2CCC3)cc1OC the outcome was “inactive; up to 5 mM”.
For Cc1[nH]c2ccc(OC(F)(F)F)cc2c1CCN1C(=O)C2CCCCC2C1=O (stereo unspecified), the outcome was “inactive; up to 10 µM”.
With COc1ccc(/C=C(/C(=O)O)c2cc(OC)c(OC)c(OC)c2)cc1O the outcome was “inactive; up to 10 mM”.
With Nc1nonc1-c1cccnc1 the outcome was “inactive; up to 100 mM”.
For O=C(Nc1cccc(C(F)(F)F)c1)c1nscc1NCc1ccncc1, the outcome was “inactive; up to 1 µM”.
In the case of CS(=O)(=O)c1ccc(Nc2nnc(-c3ccccc3N)o2)cc1, the outcome was “inactive; up to 5 mM”.
In the case of COc1ccc2[nH]cc(CCN3C(=O)OC(C)(C)C3(C)O)c2c1 (stereo unspecified), the outcome was “inactive; up to 10 µM”.
With COc1cc(-c2nc(-c3ccncc3)no2)cc(OC)c1OC the outcome was “inactive; up to 10 µM”.
For COc1ccc(Nc2nc(-c3ccc(OC)c(OC)c3)cs2)cc1, the outcome was “inactive; up to 50 µM”.
For Nc1cc2c(cc1C(=O)c1ccccc1)OCCO2, the outcome was “inactive; up to 5 mM”.
For COc1cc(C(=O)NCCc2c(C)[nH]c3ccc(OC(F)(F)F)cc23)cc(OC)c1OC, the outcome was “inactive; up to 50 µM”.
For c1cnc(-c2nc(-c3ccc4c(c3)OCO4)no2)cn1, the outcome was “inactive; up to 5 µM”.
In the case of O=C(Nc1ccc(F)cc1)C(=O)c1cn(Cc2ccc(Cl)cc2)c2ccccc12, the outcome was “inactive; up to 5 mM”.
With NC(=O)C(=O)c1cn(Cc2ccc(Cl)cc2Cl)c2ccccc12 the outcome was “inactive; up to 10 µM”.
For COc1ccc(-c2nc(Nc3nc(C)cc(C)n3)n[nH]2)cc1OC, the outcome was “inactive; up to 10 µM”.
For O=C(Nc1cccc(Cl)c1)C(=O)c1cn(Cc2ccc(Cl)cc2)c2ccccc12, the outcome was “inactive; up to 5 mM”.
In the case of NC(=O)C(=O)c1cn(Cc2ccc(F)cc2)c2ccccc12, the outcome was “inactive; up to 50 µM”.
For O=C(C(=O)c1ccc2c(c1)OCO2)c1ccc2c(c1)OCO2, the outcome was “inactive; up to 2 mM”.
With COC(=O)c1cc(=O)c(O)c2c(O)c(O)c(OC)cc2c1 the outcome was “inactive; up to 20 mM”.
In the case of O=C(Nc1ccc(C(F)(F)F)cc1)C(=O)c1cn(Cc2ccc(Cl)cc2)c2ccccc12, the outcome was “inactive; up to 0.5 µM”.
For Nc1nc2ccccc2cc1-c1nnc(Nc2ccc3c(c2)OCO3)o1, the outcome was “inactive; up to 2 mM”.
In the case of CCOc1ccc(C2=C3c4cc(OCC)c(OCC)cc4CCN3C(=O)C2=O)cc1OCC, the outcome was “inactive; up to 50 µM”.
For O=C(Nc1cccc(C(F)(F)F)c1)C(=O)c1cn(Cc2ccc(Cl)cc2)c2ccccc12, the outcome was “inactive; up to 5 mM”.
In the case of Clc1ccc(-c2[nH]c(-c3cccc(C#Cc4ccccc4)c3)nc2-c2ccccc2)cc1, the outcome was “inactive; up to 5 mM”.
With Cc1nc2ccccn2c1-c1csc(Nc2ccc(Br)cc2Br)n1 the outcome was “inactive; up to 5 mM”.
With O=C(Nc1ccc(Cl)cc1)C(=O)c1cn(Cc2ccc(Cl)cc2)c2ccccc12 the outcome was “inactive; up to 5 mM”.
In the case of c1cncc(CNc2cn[nH]c2-c2nnc(Nc3ccc4c(c3)OCCO4)o2)c1, the outcome was “inactive; up to 10 µM”.
For COc1ccc(Cc2nn[nH]n2)cc1OC, the outcome was “inactive; up to 50 µM”.
For COc1ccc2[nH]cc(CCNC(=O)C(F)(F)F)c2c1, the outcome was “inactive; up to 50 µM”.
In the case of CC(=O)OC1C(=O)C2C(O)CC3OCC3(OC(C)=O)C2C(OC(=O)c2ccccc2)C2(O)CC(OC(=O)C(O)C(NCc3ccccc3)c3ccccc3)C(C)=C1C2(C)C (stereo unspecified), the outcome was “inactive; up to 50 µM”.
With COc1ccc2[nH]c(C(=O)O)c(CCNC(C)=O)c2c1 the outcome was “inactive; up to 50 µM”.
With O=C1c2c(O)cc(O)cc2OC(c2ccc(O)c(O)c2)C1O (stereo unspecified) the outcome was “inactive; up to 50 µM”.
For Cc1onc(-c2ccccc2Cl)c1C(=O)Nc1cccnc1, the outcome was “inactive; up to 50 µM”.
With COc1cc2ccnc(-c3c[nH]c4cc(OC)c(OC)cc34)c2cc1OC the outcome was “inactive; up to 10 µM”.
For CCOc1cc2c(cc1OCC)C(c1cc(OC)c(O)c(OC)c1)NCC2 (stereo unspecified), the outcome was “inactive; up to 50 µM”.
With Cn1cnc(NCc2cccnc2)c1-c1nnc(Nc2ccc3c(c2)OCCO3)o1 the outcome was “inactive; up to 2.5 µM”.
With COc1ccc(CNc2ccccc2-c2nn[nH]n2)cc1OC the outcome was “inactive; up to 20 mM”.
In the case of CCOc1cc2c(cc1OCC)C(c1cc(OC)c(OC)c(OC)c1)NCC2 (stereo unspecified), the outcome was “inactive; up to 50 µM”.
For Nc1csnc1C(=O)Nc1cccc(C(F)(F)F)c1, the outcome was “inactive; up to 5 µM”.
With CC(=O)Nc1ccccc1-c1cc(C)c2ccccc2n1 the outcome was “inactive; up to 50 µM”.
For COc1ccc(-c2nn[nH]n2)cc1OC, the outcome was “inactive; up to 100 µM”.
In the case of O=C(Nc1ccc(OC(F)(F)F)cc1)C(=O)c1cn(Cc2ccc(Cl)cc2)c2ccccc12, the outcome was “inactive; up to 1 µM”.
In the case of COc1ccc(C2=NOC3C4COC(O4)C(=O)C23)cc1 (stereo unspecified), the outcome was “inactive; up to 5 mM”.
For COC(=O)c1ccccc1NC(=O)Cn1nnc(-c2ccc(OC)cc2)n1, the outcome was “inactive; up to 5 mM”.
In the case of O=C(CC1(O)C(=O)N(Cc2ccc(F)cc2)c2ccccc21)c1ccc2c(c1)OCO2 (stereo unspecified), the outcome was “inactive; up to 2.5 µM”.
In the case of Nc1cn[nH]c1-c1nc(-c2ccc(C(F)(F)F)cc2)n[nH]1, the outcome was “inactive; up to 50 mM”.
In the case of NC(=O)CCNCc1cccnc1, the outcome was “inactive; up to 10 µM”.
With COc1cc(-c2nnc(Nc3ccc4c(c3)OCO4)o2)cc(OC)c1OC the outcome was “inactive; up to 5 µM”.
In the case of O=C(Nc1cccnc1Cl)C(=O)c1cn(Cc2ccc(Cl)cc2)c2ccccc12, the outcome was “inactive; up to 2.5 mM”.
For O=C(Nc1ccc(Br)cc1)C(=O)c1cn(Cc2ccc(Cl)cc2)c2ccccc12, the outcome was “inactive; up to 5 mM”.
In the case of COc1ccc2[nH]cc(CCNC(C)=O)c2c1, the outcome was “inactive; up to 50 µM”.
In the case of COc1ccc2[nH]cc(CCN)c2c1, the outcome was “inactive; up to 50 µM”.
For Nc1[nH]ncc1-c1nnc(Nc2ccc3c(c2)OCO3)o1, the outcome was “inactive; up to 20 mM”.
For COc1ccc(-c2nc(C)n3ccc4cc(OC)c(OC)cc4c23)cc1OC, the outcome was “inactive; up to 10 µM”.
For O=C(Nc1cccc(F)c1)C(=O)c1cn(Cc2ccc(Cl)cc2)c2ccccc12, the outcome was “inactive; up to 5 mM”.
For COc1ccc2[nH]c(C)c(CCN3C(=O)C4CCCCC4C3=O)c2c1 (stereo unspecified), the outcome was “inactive; up to 50 µM”.
In the case of COc1cc(N)c(C(O)c2nccc3cc(OC)c(OC)cc23)cc1OC (stereo unspecified), the outcome was “inactive; up to 50 µM”.
In the case of CCOc1cc(CNc2cccc3[nH]c(C)nc23)ccc1OC, the outcome was “inactive; up to 50 µM”.
With c1cc(-c2nc(-c3ccc4c(c3)OCO4)no2)ccn1 the outcome was “inactive; up to 50 µM”.
In the case of O=C(Nc1cccc(C(F)(F)F)c1)c1nscc1NCc1ccc2c(c1)OCO2, the outcome was “inactive; up to 5 µM”.
For COc1ccc(-c2oc(=O)oc2-c2ccc(OC)c(OC)c2)cc1OC, the outcome was “inactive; up to 5 mM”.
In the case of NC(=O)c1nscc1NCc1cccnc1, the outcome was “inactive; up to 50 µM”.
In the case of COc1cc(OC)c2c(c1)OC(c1ccc(OC)c(OC)c1)C(O)C2=O (stereo unspecified), the outcome was “inactive; up to 10 µM”.
For Brc1ccc(-c2n[nH]c(-c3[nH]ncc3NCc3ccncc3)n2)cc1, the outcome was “inactive; up to 20 mM”.
For NC(=O)c1nscc1NCc1ccncc1, the outcome was “inactive; up to 5 µM”.
In the case of c1cncc(CNc2cn[nH]c2-c2nnc(Nc3ccc4c(c3)OCO4)o2)c1, the outcome was “inactive; up to 10 µM”.
For O=c1c(O)c(-c2ccc(O)c(O)c2)oc2cc(O)cc(O)c12, the outcome was “inactive; up to 100 µM”.
For COc1ccc(Cc2nc(-c3nonc3N)no2)cc1OC, the outcome was “inactive; up to 100 mM”.
In the case of Cc1[nH]c2ccc(OC(F)(F)F)cc2c1CCNC(=O)Cc1ccc(Cl)cc1, the outcome was “inactive; up to 10 µM”.
For COc1cccc(NC(=O)C(=O)c2c[nH]c3ccccc23)c1, the outcome was “inactive; up to 5 mM”.
With COc1ccc(-c2csc(Nc3ccccc3OC)n2)cc1Br the outcome was “inactive; up to 5 mM”.
With Brc1cccc(-c2n[nH]c(-c3[nH]ncc3NCc3ccc4c(c3)OCO4)n2)c1 the outcome was “inactive; up to 5 mM”.

System: sea urchin embryo, cleavage alteration, microscopy
Experiment: as above
Settings: not given
Molecule CCOc1ccc(Nc2nc(-c3c(C)nc4cc(C)ccn34)cs2)cc1 has a threshold concentration of 200 nM.
With Nc1cc2c(cc1-c1nnc(Nc3ccc4c(c3)OCO4)o1)OCO2 the threshold concentration was 50 nM.
With c1cncc(CNc2ccccc2-c2nnc(Nc3ccc4c(c3)OCO4)o2)c1 the threshold concentration was 1 nM.
Molecule Cc1nc2sccn2c1-c1csc(Nc2ccc(Cl)cc2)n1 has a threshold concentration of 100 nM.
Work on O=C(Nc1ccc2c(c1)OCO2)C(=O)c1cn(Cc2ccc(Cl)cc2)c2ccccc12 yielded a threshold concentration of 50 nM.
CCC1=CCN2CCC34c5cc(C6(C(=O)OC)CC7CN(CCc8c6[nH]c6ccccc86)CC(O)(CC)C7)c(OC)cc5N(C)C3C(O)(C(=O)OC)C(OC(C)=O)C1C24 (stereo unspecified) gave a threshold concentration of 200 nM.
With COc1cc2c(cc1O)CCC1C2CCC2(C)C(O)CCC12 (stereo unspecified) the threshold concentration was 200 nM.
For COC1=CC(=O)N(C(=O)C(OC(=O)C2CCCN2C(=O)C2CCCN2C(=O)C(C(C)C)N(C)C(=O)C(NC(=O)C(C(C)C)N(C)C)C(C)C)C(C)C)C1Cc1ccccc1 (stereo unspecified) (ξNMe2Val-V[NMeV]PP-X1; configuration not given here), the threshold concentration was 5 nM.
Molecule c1ccc(-c2nnc(Nc3ccc4c(c3)OCO4)o2)c(NCc2ccncc2)c1 has a threshold concentration of 0.5 nM.
In the case of O=C(Nc1ccncc1)C(=O)c1cn(Cc2ccc(Cl)cc2)c2ccccc12, the threshold concentration was 10 nM.
Molecule CCOc1ccc(Nc2nc(-c3c(C)nc4ncccn34)cs2)cc1 has a threshold concentration of 5 nM.
With CCOc1ccc(Nc2nc(-c3c(C)nc4sccn34)cs2)cc1 the threshold concentration was 50 nM.
COc1ccc(-c2nc3sc4c(c3c(=O)[nH]2)CCCC4)c2ccccc12 gave a threshold concentration of 50 nM.
With Cc1nc2ncccn2c1-c1csc(Nc2ccc(Cl)cc2)n1 the threshold concentration was 100 nM.
With COc1cccc(NC(=O)C(=O)c2cn(Cc3ccc(Cl)cc3)c3ccccc23)c1 the threshold concentration was 4000 nM.
With O=C1c2cccc(O)c2C(=O)c2c(O)cc(CO)cc21 the threshold concentration was 20000 nM.
With Nc1cn[nH]c1-c1nc(-c2cccc(F)c2)n[nH]1 the threshold concentration was 500 nM.
O=C(Nc1ccc2c(c1)OCCO2)C(=O)c1c[nH]c2ccccc12 showed a threshold concentration of 2 nM.
